Like-named read-outs stand apart in the source and are kept apart here. A value given as a limit tells only on which side of the number the result lay.

We go through three compounds from EP0168658A1, “Pyrrolecarboxylic acid derivative having analgesic activity, preparation thereof and compositions therefrom” (POLI INDUSTRIA CHIMICA S.p.A., priority 1984, dated 1986).

One data set deals with Male albino mice. Put plainly: Hot-plate test (plate at 55°C), analgesic activity by the oral route. The class given is in vivo, mouse. The note with it: read-out: Hot place EX50. Here is the method: (§1) The analgesic activity of the compound of formula I by the oral route, has been determined in the mouse using the following tests: • - Phenylquinone test (Hendershot and Forsaith - J. Pharma- col. Exptl. Ther. 123, 237 (1959)); • - Hot-plate test. Male albino mice, treated with increasing doses of the compound under exam, are placed on a plate thermostatized at 55°C. An effective dose 50 (ED50) is defined as the dose inducing a 50% increase of the reaction time to the pain stimulus.

The subject of data set [1] is mouse. The experiment in a line: Phenylquinone test, analgesic activity by the oral route. The class given is in vivo. Here is the method: as §1
The test system of data set [2] is mouse. The experiment in a line: Jumping by nalorphine (physical addiction). The class given is in vivo.
The nature of a further data set: Acute toxicity per os. The note with it: in vivo, po, mouse, at the 14th observation day. The text has this: The acute toxicity per os is expressed as LD50 at the 14th observation day.
For data set [3], the system named is cyclooxygenase. Put plainly: Cyclooxygenase inhibitory activity. It is filed as biochemical.
Data set [4] relates to prostaglandine-synthetase. Put plainly: Prostaglandine-synthetase inhibitory activity. It is filed as biochemical.
Data set [5] deals with prostaglandine-synthetase. Particulars: background statement on the known drug; cited from earlier work.
The test system of data set [6] is cyclooxygenase. Particulars: background statement on the known drug; cited from earlier work.

Turning to `COc1ccc2c3c1O[C@H]1[C@@H](O)C=C[C@H]4[C@@H](C2)N(C)CC[C@@]341.Cl` [Codeine HCl, codeine hydrochloride, reference compound], the ED50 is 25 mg/kg in the data set with Male albino mice (Mus musculus, po) and 5.6 mg/kg in the data set on mouse [1].

Usually LD50 stands for the dose expected to kill half of the subjects tested. Turning to `Cc1c(C(=O)O)c(C)n(C)c1C(=O)c1ccc(F)cc1` [Compound I, 5-(4-fluoro-benzoyl)-1,2,4-trimethyl-3-pyrrolcarboxylic acid], the ED50 in the data set with Male albino mice (mouse, oral route, plate at 55°C, dose inducing a 50% increase of the reaction time to the pain stimulus) came to 3.5 mg/kg; in the data set with mouse [1], 2.1 mg/kg. Moreover, the jumping by nalorphine result with mouse [2] is “does not induce”. In the data set “Acute toxicity per os”, this compound yielded an LD50 at 336 h of more than 1600 mg/kg. For the same compound, the cyclooxygenase inhibitory activity result in the data set with cyclooxygenase [3] is “without cyclooxygenase and prostaglandine-synthetase inhibitory activity”. Besides, the prostaglandine-synthetase inhibitory activity entry in data set [4] is “without cyclooxygenase and prostaglandine-synthetase inhibitory activity”.

As for `Cc1cc(CC(=O)O)n(C)c1C(=O)c1ccc(Cl)cc1` [zomepirac, 5-(p-chlorobenzoyl)-l,4-dimethylpyrrole-2-acetic acid], the “capacity of inhibiting prostaglandine-synthetase” value in data set [5] was “capacity of inhibiting the enzymes cyclooxygenase and prostaglandine-synthetase”. Moreover, the “capacity of inhibiting cyclooxygenase” value in the data set with cyclooxygenase [6] is “capacity of inhibiting the enzymes cyclooxygenase and prostaglandine-synthetase”.
